Active and inactive are the calls of the source. No cut-off for these calls is given here.

One assay deals with Salmonella typhimurium. Nature of the assay: Antimicrobial activity against Salmonella Typhimurium ATCC 14028 assessed as inhibition of planktonic growth at 40 uM at 25 degC after 24 hrs. The format is functional, organism-based. Particulars: Salmonella enterica subsp. enterica serovar Typhimurium.
In the case of `CCCCCCCC[n+]1c(-c2ccc(OC)cc2)cn2cccnc21.[O-][Cl+3]([O-])([O-])[O-]`, the inhibition result is “Active”.

Regarding `CCCCCCCC[n+]1c(-c2ccc(F)cc2)cn2cccnc21.[O-][Cl+3]([O-])([O-])[O-]`, the inhibition result was “inactive”.

Consider `CCCCCCCCn1c(-c2ccc(S(C)(=O)=O)cc2)cnc1N`, for which the inhibition result was “Active”.

On to `CCCCCCCC[n+]1c(-c2ccc(SC)cc2)cn2cccnc21.[O-][Cl+3]([O-])([O-])[O-]`, for which the inhibition entry was “Active”.

For `Nc1ncc(-c2ccc(-c3ccccc3)cc2)n1C1CCCCCC1`, the inhibition entry was “Active”.

Consider `CCCCCCCCCCCCCn1c(-c2ccc(Cl)cc2)cnc1N`, for which the inhibition result is “inactive”.

As for `CCCCn1c(-c2ccc(-c3ccccc3)cc2)cnc1N`, the inhibition entry is “Active”.

Regarding `Nc1ncc(-c2ccc(-c3ccccc3)cc2)n1C1CCCCC1`, the inhibition entry is “Active”.

Another assay deals with Pseudomonas aeruginosa. Nature of the assay: Antimicrobial activity against Pseudomonas aeruginosa assessed as inhibition of planktonic growth at 20 uM at 25 degC after 24 hrs. The format is functional, organism-based.
Conditions: not given
Regarding `CCCCCCCC[n+]1c(-c2cccc(Br)c2)cn2cccnc21.[O-][Cl+3]([O-])([O-])[O-]`, the inhibition result is “inactive”.

`CCCCCCCC[n+]1c(-c2ccc(OC)cc2)cn2cccnc21.[O-][Cl+3]([O-])([O-])[O-]`: the inhibition result is “inactive”.

In the case of `CCCCCCCC[n+]1c(-c2ccc(F)cc2)cn2cccnc21.[O-][Cl+3]([O-])([O-])[O-]`, the inhibition result was “inactive”.

In the case of `CCCCCCCCn1c(-c2ccc(S(C)(=O)=O)cc2)cnc1N`, the inhibition entry is “inactive”.

`CCCCCCCC[n+]1c(-c2ccc(SC)cc2)cn2cccnc21.[O-][Cl+3]([O-])([O-])[O-]`: the inhibition result was “inactive”.

On to `CCCCCCCC[n+]1c(-c2ccc([N+](=O)[O-])cc2)cn2cccnc21.[O-][Cl+3]([O-])([O-])[O-]`, for which the inhibition entry is “inactive”.

`CCCCCCCCn1c(-c2ccccc2)cnc1N`: the inhibition result was “inactive”.

In the case of `CCCCCCCCn1c(-c2cccc(Br)c2)cnc1N`, the inhibition entry is “inactive”.

`CCCCCCCn1c(-c2ccc(-c3ccccc3)cc2)cnc1N`: the inhibition result was “Active”.

`O=[N+]([O-])c1ccc(-c2cn3cccnc3[n+]2C2CCCCCCCCCCC2)cc1.[O-][Cl+3]([O-])([O-])[O-]`: the inhibition result was “Active”.

For the molecule `CCCCCCn1c(-c2ccccc2)cnc1N`, the inhibition result is “inactive”.

Another assay concerns Salmonella typhimurium. As to the kind of experiment: Antimicrobial activity against Salmonella Typhimurium ATCC 14028 assessed as inhibition of planktonic growth at 10 uM at 25 degC after 24 hrs. The format is functional, organism-based. Particulars: Salmonella enterica subsp. enterica serovar Typhimurium.
Turning to `CCCCCCCC[n+]1c(-c2cccc(Br)c2)cn2cccnc21.[O-][Cl+3]([O-])([O-])[O-]`, the inhibition result is “inactive”.

Regarding `Nc1ncc(-c2ccc(-c3ccccc3)cc2)n1C1CCCCCC1`, the inhibition result was “Active”.

`CCCCCCCCn1c(-c2ccccc2)cnc1N`: the inhibition result was “inactive”.

As to `CCCCCCCCn1c(-c2cccc(Br)c2)cnc1N`, the inhibition entry was “inactive”.

As to `CCCCCCCn1c(-c2ccc(-c3ccccc3)cc2)cnc1N`, the inhibition entry is “inactive”.

Take `O=[N+]([O-])c1ccc(-c2cn3cccnc3[n+]2C2CCCCCCCCCCC2)cc1.[O-][Cl+3]([O-])([O-])[O-]`: the inhibition entry was “inactive”.

Take `Nc1ncc(-c2ccc(-c3ccccc3)cc2)n1C1CCCCC1`: the inhibition entry is “inactive”.

Another assay relates to Salmonella typhimurium. As to the kind of experiment: Antimicrobial activity against Salmonella Typhimurium ATCC 14028 assessed as inhibition of planktonic growth at 20 uM at 25 degC after 24 hrs. The format is functional, organism-based. The note with it: Salmonella enterica subsp. enterica serovar Typhimurium.
In the case of `CCCCCCCC[n+]1c(-c2cccc(Br)c2)cn2cccnc21.[O-][Cl+3]([O-])([O-])[O-]`, the inhibition result was “Active”.

As for `CCCCCCCC[n+]1c(-c2ccc(OC)cc2)cn2cccnc21.[O-][Cl+3]([O-])([O-])[O-]`, the inhibition entry is “Active”.

`CCCCCCCC[n+]1c(-c2ccc(F)cc2)cn2cccnc21.[O-][Cl+3]([O-])([O-])[O-]`: the inhibition result was “inactive”.

For `CCCCCCCCn1c(-c2ccc(S(C)(=O)=O)cc2)cnc1N`, the inhibition result was “inactive”.

As to `CCCCCCCC[n+]1c(-c2ccc(SC)cc2)cn2cccnc21.[O-][Cl+3]([O-])([O-])[O-]`, the inhibition result is “Active”.

Take `Nc1ncc(-c2ccc(-c3ccccc3)cc2)n1C1CCCCCC1`: the inhibition entry is “Active”.

As for `CCCCCCCCn1c(-c2ccccc2)cnc1N`, the inhibition entry is “Active”.

Consider `CCCCCCCCn1c(-c2cccc(Br)c2)cnc1N`, for which the inhibition entry was “Active”.

`CCCCCCCn1c(-c2ccc(-c3ccccc3)cc2)cnc1N`: the inhibition entry was “Active”.

For the molecule `O=[N+]([O-])c1ccc(-c2cn3cccnc3[n+]2C2CCCCCCCCCCC2)cc1.[O-][Cl+3]([O-])([O-])[O-]`, the inhibition entry is “inactive”.

As to `CCCCCCCCCCCCCn1c(-c2ccc(Cl)cc2)cnc1N`, the inhibition result was “inactive”.

For the molecule `CCCCn1c(-c2ccc(-c3ccccc3)cc2)cnc1N`, the inhibition result is “Active”.

As to `Nc1ncc(-c2ccc(-c3ccccc3)cc2)n1C1CCCCC1`, the inhibition entry is “Active”.

The subject of the next assay is Salmonella typhimurium. Nature of the assay: Antibiofilm activity in Salmonella Typhimurium ATCC 14028 assessed as inhibition of biofilm formation at 25 degC after 24 hrs. The note with it: Salmonella enterica, ATCC 14028, 24 h. The format is functional, organism-based, Salmonella enterica subsp. enterica serovar Typhimurium.
As usually defined, the IC50 is the concentration that inhibits the measured activity by half. As for `CCCCCCCC[n+]1c(-c2cccc(Br)c2)cn2cccnc21.[O-][Cl+3]([O-])([O-])[O-]`, the IC50 was found to be 7.3 µM.

Take `CCCCCCCC[n+]1c(-c2ccc(OC)cc2)cn2cccnc21.[O-][Cl+3]([O-])([O-])[O-]`: the IC50 is 34.8 µM.

On to `CCCCCCCC[n+]1c(-c2ccc(F)cc2)cn2cccnc21.[O-][Cl+3]([O-])([O-])[O-]`, for which the IC50 was 35.7 µM.

Take `CCCCCCCCn1c(-c2ccc(S(C)(=O)=O)cc2)cnc1N`: the IC50 worked out at 29.1 µM.

Regarding `CCCCCCCC[n+]1c(-c2ccc(SC)cc2)cn2cccnc21.[O-][Cl+3]([O-])([O-])[O-]`, the IC50 was 20.7 µM.

`CCCCCCCC[n+]1c(-c2ccc([N+](=O)[O-])cc2)cn2cccnc21.[O-][Cl+3]([O-])([O-])[O-]`: the IC50 was found to be 63.6 µM.

`Nc1ncc(-c2ccc(-c3ccccc3)cc2)n1C1CCCCCC1`: the IC50 turned out to be 12.5 µM.

Turning to `CCCCCCCCn1c(-c2ccccc2)cnc1N`, the IC50 turned out to be 11.9 µM.

For `CCCCCCCCn1c(-c2cccc(Br)c2)cnc1N`, the IC50 stood at 11.2 µM.

`CCCCCCCn1c(-c2ccc(-c3ccccc3)cc2)cnc1N`: the IC50 amounted to 9.3 µM.

For `O=[N+]([O-])c1ccc(-c2cn3cccnc3[n+]2C2CCCCCCCCCCC2)cc1.[O-][Cl+3]([O-])([O-])[O-]`, the IC50 came out at 9.8 µM.

Consider `CCCCCCCCCCCCCn1c(-c2ccc(Cl)cc2)cnc1N`, for which the half-maximal inhibitory concentration (IC50) was 19.5 µM.

Regarding `CCCCCCn1c(-c2ccccc2)cnc1N`, the IC50 came to 39.7 µM.

For the molecule `CCCCn1c(-c2ccc(-c3ccccc3)cc2)cnc1N`, the IC50 was determined as 21.1 µM.

In the case of `Nc1ncc(-c2ccc(-c3ccccc3)cc2)n1C1CCCCC1`, the half-inhibitory concentration (IC50) came to 12.6 µM.

The subject of a further assay is Pseudomonas aeruginosa. Nature of the assay: Antibiofilm activity in Pseudomonas aeruginosa assessed as inhibition of biofilm formation at 25 degC after 24 hrs. The class given is functional, organism-based.
Conditions: not given
With `CCCCCCCC[n+]1c(-c2cccc(Br)c2)cn2cccnc21.[O-][Cl+3]([O-])([O-])[O-]`, the 50% inhibitory concentration (IC50) came out at 7 µM.

As for `CCCCCCCC[n+]1c(-c2ccc(OC)cc2)cn2cccnc21.[O-][Cl+3]([O-])([O-])[O-]`, the IC50 amounted to 8.7 µM.

With `CCCCCCCC[n+]1c(-c2ccc(F)cc2)cn2cccnc21.[O-][Cl+3]([O-])([O-])[O-]`, the IC50 was determined as 19.5 µM.

For the molecule `CCCCCCCCn1c(-c2ccc(S(C)(=O)=O)cc2)cnc1N`, the IC50 was 4.9 µM.

For the molecule `CCCCCCCC[n+]1c(-c2ccc(SC)cc2)cn2cccnc21.[O-][Cl+3]([O-])([O-])[O-]`, the IC50 was determined as 9.3 µM.

Take `CCCCCCCC[n+]1c(-c2ccc([N+](=O)[O-])cc2)cn2cccnc21.[O-][Cl+3]([O-])([O-])[O-]`: the IC50 is 18.7 µM.

In the case of `Nc1ncc(-c2ccc(-c3ccccc3)cc2)n1C1CCCCCC1`, the half-inhibitory concentration (IC50) worked out at 6.6 µM.

Turning to `CCCCCCCCn1c(-c2ccccc2)cnc1N`, the 50% inhibitory concentration (IC50) was found to be 18.5 µM.

In the case of `CCCCCCCCn1c(-c2cccc(Br)c2)cnc1N`, the IC50 amounted to 40.6 µM.

Turning to `CCCCCCCn1c(-c2ccc(-c3ccccc3)cc2)cnc1N`, the IC50 was determined as 25.2 µM.

On to `O=[N+]([O-])c1ccc(-c2cn3cccnc3[n+]2C2CCCCCCCCCCC2)cc1.[O-][Cl+3]([O-])([O-])[O-]`, for which the IC50 stood at 15.1 µM.

Regarding `CCCCCCCCCCCCCn1c(-c2ccc(Cl)cc2)cnc1N`, the IC50 amounted to 33.9 µM.

`CCCCCCn1c(-c2ccccc2)cnc1N`: the IC50 is 19.1 µM.

Take `CCCCn1c(-c2ccc(-c3ccccc3)cc2)cnc1N`: the half-inhibitory concentration (IC50) stood at 41.6 µM.

As for `Nc1ncc(-c2ccc(-c3ccccc3)cc2)n1C1CCCCC1`, the concentration for half-maximal inhibition (IC50) turned out to be 69.7 µM.

A further assay has as its system Pseudomonas aeruginosa. As to the kind of experiment: Antimicrobial activity against Pseudomonas aeruginosa assessed as inhibition of planktonic growth at 40 uM at 25 degC after 24 hrs.
Conditions: not given
The class given is functional, organism-based.
On to `CCCCCCCC[n+]1c(-c2cccc(Br)c2)cn2cccnc21.[O-][Cl+3]([O-])([O-])[O-]`, for which the inhibition entry was “Active”.

In the case of `CCCCCCCC[n+]1c(-c2ccc(OC)cc2)cn2cccnc21.[O-][Cl+3]([O-])([O-])[O-]`, the inhibition entry was “inactive”.

Regarding `CCCCCCCC[n+]1c(-c2ccc(F)cc2)cn2cccnc21.[O-][Cl+3]([O-])([O-])[O-]`, the inhibition entry is “Active”.

As to `CCCCCCCC[n+]1c(-c2ccc(SC)cc2)cn2cccnc21.[O-][Cl+3]([O-])([O-])[O-]`, the inhibition entry is “Active”.

Regarding `CCCCCCCC[n+]1c(-c2ccc([N+](=O)[O-])cc2)cn2cccnc21.[O-][Cl+3]([O-])([O-])[O-]`, the inhibition entry is “Active”.

Regarding `CCCCCCCCn1c(-c2ccccc2)cnc1N`, the inhibition entry was “inactive”.

For the molecule `CCCCCCCCn1c(-c2cccc(Br)c2)cnc1N`, the inhibition entry is “Active”.

Turning to `CCCCCCCn1c(-c2ccc(-c3ccccc3)cc2)cnc1N`, the inhibition entry is “Active”.

Take `O=[N+]([O-])c1ccc(-c2cn3cccnc3[n+]2C2CCCCCCCCCCC2)cc1.[O-][Cl+3]([O-])([O-])[O-]`: the inhibition result is “Active”.

As for `CCCCCCn1c(-c2ccccc2)cnc1N`, the inhibition entry was “inactive”.

The subject of the next assay is Pseudomonas aeruginosa. As to the kind of experiment: Antimicrobial activity against Pseudomonas aeruginosa assessed as inhibition of planktonic growth at 10 uM at 25 degC after 24 hrs. The format is functional, organism-based.
Conditions: not given
As for `CCCCCCCC[n+]1c(-c2ccc(OC)cc2)cn2cccnc21.[O-][Cl+3]([O-])([O-])[O-]`, the inhibition entry was “inactive”.

In the case of `CCCCCCCC[n+]1c(-c2ccc([N+](=O)[O-])cc2)cn2cccnc21.[O-][Cl+3]([O-])([O-])[O-]`, the inhibition entry is “inactive”.

`O=[N+]([O-])c1ccc(-c2cn3cccnc3[n+]2C2CCCCCCCCCCC2)cc1.[O-][Cl+3]([O-])([O-])[O-]`: the inhibition result was “inactive”.

Values taken from ChEMBL document CHEMBL1649413, “Structure-activity relationship of 4(5)-aryl-2-amino-1H-imidazoles, N1-substituted 2-aminoimidazoles and imidazo[1,2-a]pyrimidinium salts as inhibitors of biofilm formation by Salmonella typhimurium and Pseudomonas aeruginosa” (J Med Chem, 2011).
